# Structures can show the parent of a compound that is named as a salt.
# Columns and labels:
# E. coli, NIHJ = test: Minimum Inhibitory Concentration, broth dilution method; type: cell-based; conditions: Escherichia coli, 10^6 cells/ml, 37° C., 18 hours
# Procedure: (§1) |Minimum Inhibitory Concentration (MIC, μg/ml) |(Broth dilution method, inoculated amount: 10^6 cells/ml, incubated |at 37° C. for 18 hours)
# Pr. vulgaris, 08601 = test: as above; type: cell-based; conditions: Proteus vulgaris, 10^6 cells/ml, 37° C., 18 hours
# Procedure: as §1
# Ps. aeruginosa, 32104 = test: as above; type: cell-based; conditions: Pseudomonas aeruginosa, 10^6 cells/ml, 37° C., 18 hours
# Procedure: as §1
# Ps. aeruginosa, 32121 = test: as above; type: cell-based; conditions: Pseudomonas aeruginosa, 10^6 cells/ml, 37° C., 18 hours
# Procedure: as §1
# Ps. aeruginosa, 32234 = test: as above; type: cell-based; conditions: Pseudomonas aeruginosa, 10^6 cells/ml, 37° C., 18 hours
# Procedure: as §1
# Ps. putida, IID 5121 = test: as above; type: cell-based; conditions: Pseudomonas putida, IID5121, 10^6 cells/ml, 37° C., 18 hours
# Procedure: as §1
# S. aureus, 209P = test: as above; type: cell-based; conditions: Staphylococcus aureus, 10^6 cells/ml, 37° C., 18 hours
# Procedure: as §1
# Ser. marcescens, 10104 = test: as above; type: cell-based; conditions: Serratia marcescens, 10^6 cells/ml, 37° C., 18 hours
# Procedure: as §1
# male rats = test: repeated intravenous administration to male rats for 10 consecutive days; type: in vivo; conditions: intravenous, 100, 300 or 1,000 mg/kg
# Text: The compounds of this invention are also characterized by low toxicity and, therefore, have a wide safety margin.
# [1] = acute toxicity, i.v. in mice; conditions: mouse, in vivo, iv
SMILES,"MIC (E. coli, NIHJ) [µg/mL]","MIC (Pr. vulgaris, 08601) [µg/mL]","MIC (Ps. aeruginosa, 32104) [µg/mL]","MIC (Ps. aeruginosa, 32121) [µg/mL]","MIC (Ps. aeruginosa, 32234) [µg/mL]","MIC (Ps. putida, IID 5121) [µg/mL]","MIC (S. aureus, 209P) [µg/mL]","MIC (Ser. marcescens, 10104) [µg/mL]","body weight, clinical examinations, weight of various organs and histological findings (male rats)",LD50 [1] [mg/kg]
"CO/N=C(\C(=O)N[C@@H]1C(=O)N2C(C(=O)[O-])=C(C[n+]3cccc(-c4cnco4)c3)CS[C@H]12)c1csc(N)n1 [Compound G, 7β-[2-(2-Aminothiazol-4-yl)-2-methoxyiminoacetamido]-3-[3-(oxazol-5-yl)-1-pyridinio]methyl-3-cephem-4-carboxylate (syn isomer)]",< 0.1,0.1,3.13,1.56,1.56,12.5,0.39,< 0.1,,
"CO/N=C(\C(=O)N[C@@H]1C(=O)N2C(C(=O)[O-])=C(C[n+]3ccc(-c4cnco4)cc3)CS[C@H]12)c1csc(N)n1 [Compound E, 7β-[2-(2-Aminothiazol-4-yl)-2-methoxyiminoacetamido]-3-[4-(oxazol-5-yl)-1-pyridinio]methyl-3-cephem-4-carboxylate (syn isomer)]",< 0.1,< 0.1,1.56,0.78,0.78,3.13,0.39,< 0.1,no abnormality were observed,> 4000
"CO/N=C(\C(=O)N[C@@H]1C(=O)N2C(C(=O)O)=C(COC(C)=O)CS[C@H]12)c1csc(N)n1 [Cefotaxime, Sodium 7β-[2-(2-aminothiazol-4-yl)-2-methoxyiminoacetamido]-3-acetoxymethyl-3-cephem-4-carboxylate (syn isomer), reference compound]",< 0.1,< 0.1,25,12.5,12.5,50,3.13,0.39,,
"CO/N=C(\C(=O)N[C@@H]1C(=O)N2C(C(=O)[O-])=C(C[n+]3ccc(-c4ncco4)cc3)CS[C@H]12)c1csc(N)n1 [Compound D, 7β-[2-(2-Aminothiazol-4-yl)-2-methoxyiminoacetamido]-3-[4-(oxazol-2-yl)-1-pyridinio]methyl-3-cephem-4-carboxylate (syn isomer)]",< 0.1,< 0.1,3.13,1.56,1.56,3.13,0.78,< 0.1,,> 4000
"CO/N=C(\C(=O)N[C@@H]1C(=O)N2C(C(=O)[O-])=C(C[n+]3ccc(-n4cncn4)cc3)CS[C@H]12)c1csc(N)n1 [Compound B, 7β-[2-(2-Aminothiazol-4-yl)-2-methoxyiminoacetamido]-3-[4-(1,2,4-triazol-1-yl)-1-pyridinio]methyl-3-cephem-4-carboxylate dihydrochloride (syn isomer)]",< 0.1,< 0.1,1.56,0.78,0.78,6.25,0.78,< 0.1,,
"CO/N=C(\C(=O)N[C@@H]1C(=O)N2C(C(=O)[O-])=C(C[n+]3ccc(-c4ncc[nH]4)cc3)CS[C@H]12)c1csc(N)n1 [Compound C, 7β-[2-(2-Aminothiazol-4-yl)-2-methoxyiminoacetamido]-3-[4-(imidazol-2-yl)-1-pyridinio]methyl-3-cephem-4-carboxylate trihydrochloride (syn isomer)]",< 0.1,< 0.1,25,12.5,1.56,12.5,0.78,< 0.1,,
"CO/N=C(\C(=O)N[C@@H]1C(=O)N2C(C(=O)[O-])=C(C[n+]3ccc(-c4csnn4)cc3)CS[C@H]12)c1csc(N)n1 [Compound H, 7β-[2-(2-Aminothiazol-4-yl)-2-methoxyiminoacetamido]-3-[4-(1,2,3-thiadiazol-4-yl)-1-pyridinio]methyl-3-cephem-4-carboxylate dihydrochloride (syn isomer)]",< 0.1,< 0.1,1.56,1.56,0.78,12.5,0.39,< 0.1,,
"CO/N=C(\C(=O)N[C@@H]1C(=O)N2C(C(=O)[O-])=C(C[n+]3ccc(-n4ccnc4)cc3)CS[C@H]12)c1csc(N)n1 [Compound A, 7β-[2-(2-Aminothiazol-4-yl)-2-methoxyiminoacetamido]-3-[4-(imidazol-1-yl)-1-pyridinio]methyl-3-cephem-4-carboxylate trihydrochloride (syn isomer)]",< 0.1,< 0.1,1.56,1.56,1.56,1.56,0.39,< 0.1,,2000 to 4000
"CO/N=C(\C(=O)N[C@@H]1C(=O)N2C(C(=O)[O-])=C(C[n+]3ccc(-c4nnco4)cc3)CS[C@H]12)c1csc(N)n1 [Compound F, 7β-[2-(2-Aminothiazol-4-yl)-2-methoxyiminoacetamido]-3-[4-(1,3,4-oxadiazol-2-yl)-1-pyridinio]-methyl-3-cephem-4-carboxylate (syn isomer)]",< 0.1,0.1,0.78,0.78,0.78,1.56,0.39,< 0.1,,> 4000

# Reference: patent publication US4833242A, “Cephalosporin derivatives and salts thereof” (Daiichi Seiyaku Co., Ltd., priority 1984, dated 1989)
